The source of these data is patent publication US9296687B2, “Modulators of HSP70/DnaK function and methods of use thereof” (The Trustees of the University of Pennsylvania, priority 2008, dated 2016).

Test [1] concerns caspase-3, caspase-8. In words: Western blot for caspase cleavage. Format: cell-based, human. For orientation: Immunoblotting shows a protein as a band on a membrane.
Test [2] relates to Eμ-Myc transgenic mice. Briefly: Eμ-Myc mouse model of lymphomagenesis. It is filed as in vivo. The method, then:
To evaluate the efficacy of PES as a chemopreventative agent, Eμ-Myc transgenic mice were injected every 5 days, starting at 8 weeks of age, with either vehicle or PES (40 mg/kg) prepared in PBS. All animals received a total of 7 injections, either with PES or vehicle. Consequently, no injection was given after day 86. All mice were observed daily for signs of morbidity and the development of lymphoma. All experiments with mice were approved by, and conformed to, the guidelines of the Institutional Animal Care and Use Committee of the Fox Chase Cancer Center. These mice may also be used to advantage to test the beneficial therapeutic combinations of agents and/or treatments described herein.
Beginning at 6 weeks of age, Eμ-myc transgenic mice were treated either with vehicle, 20 mg/kg PES or 20 mg/kg PES-Cl with weekly i.p. injections of tested compound (FIG. 27).

Test [3] relates to U2OS cells. Briefly: Long-lived protein degradation assay. It is filed as cell-based, human. As to conditions: 20 μM. The method, then:
The long-lived protein degradation assays were performed as described (Humbey et al., 2008; Pimkina et al., 2008), but with the following modifications. The cells were seeded at 30% confluency. The cells were then labeled at 37° C. for 14 h in L-valine-free medium supplemented with dialyzed FBS medium containing 0.2 mCi/ml of L-[^14C]valine (Amersham Pharmacia). After the radiolabeling period, unincorporated radioisotope was removed by three rinses with PBS (pH 7.4). Cells were then incubated at 37° C. in fresh complete media [Dulbecco's modified Eagle's medium (DMEM), 10% fetal bovine serum (FBS), 1% penicillin-streptomycin (PS)] containing 2 mM unlabeled valine for 10 h to allow the degradation of labeled short-lived proteins. Cells were then rinsed 3 times with PBS (pH 7.4), and grown in fresh complete media [DMEM, 10% FBS, 1% PS] containing either DMSO or 20 μM PES. Aliquots of the media (0.2 ml in duplicate) were taken at 0 h, 4 h, 8 h, 24 h, and 48 h and mixed with 0.2 ml of 1% bovine serum albumin and 0.4 ml of 40% trichloroacetic acid (v/v). […] Radioactivity in the aliquots was measured on a Beckman liquid scintillation system. The percentage of long-lived protein degraded was obtained by the formula % degradation=(^14C counts at timepoint/sum of ^14C counts at each time point+total cell-associated radioactivity)×100.

Test [4] concerns EGFR, HER2/ErbB2, AKT. In words: Western blot of HSP70/HSP90 client proteins in detergent-soluble and detergent-insoluble fractions. Format: cell-based, human. The method, then: FIG. 17. PES impairs the proteasome system. (A) Cell-based 20S proteasome activity assay of H1299 or A875 human tumor cells treated with DMSO, 20 μM PES, 100 nM Velcade (proteasome inhibitor), 1 μM 17-AAG (HSP90 inhibitor), 5 μM CQ (lysosome inhibitor), or 20S proteasome inhibitor epigallocatechin gallate (EGCG). Each graphical representation indicates the mean±SD of at least three independent cultures relative to control (DMSO-treated) cells. (B) Cell extracts from SKBR3 human breast carcinoma cells, treated either with 20 μM PES or 1 μM 17-AAG for 24 h, were immunoprecipitated (IP) using anti-HSP70 or anti-HSP90 antibody. […] MTT assays of MCF7 human breast carcinoma cells pretreated with DMSO, or 5 μM PES for 1 h, followed by the addition of indicated amount of 17-AAG for 47 h. The results represent the mean±SD of at least three independent analysis of cultures relative to control (DMSO-treated) cells. (D and E) H1299 cells (D) or SKBR3 cells (E) were treated with DMSO, 20 μM PES, 17-AAG, or 17-AAG plus bortezomib (Velcade) as indicated; harvested in 1% NP-40 containing lysis buffer; fractionated into detergent-soluble and detergent-insoluble preparations; and assayed by western blot.
FIG. 18. Accumulation of HSP90 client proteins in the protein detergent-insoluble fraction following PES. (A) SKOV3 cells were treated with DMSO, 10 μM PES, or 20 μM PES for 24 h. Note the marked accumulation of EGFR, HER2/ErbB2, and AKT in the detergent-insoluble fraction following 20 μM PES treatment. (B and C) SKOV3 (B) or SKBR3 (C) cells were treated with DMSO, 20 μM PES, or 1 μM 17-AAG, as indicated, for 24 h. Cells were harvested in 1% NP-40 containing lysis buffer, fractionated into detergent-soluble and detergent-insoluble preparations, and assayed by western blot for the proteins indicated.
The HSP70 and HSC70 proteins bind to exposed hydrophobic regions of nascent-, translocating-, misfolded- or partially unfolded-proteins. These ATP-dependent molecular chaperones act in multi-protein complexes in conjunction with one or more regulatory co-chaperones to carry out multiple cellular functions. […] This is illustrated for H1299 cells treated with 10 or 20 μM PES for 24 h. […] This correlates with a reduced abundance of complexes containing HSP70, or HSC70, together with client proteins or co-chaperones (FIGS. 19A and 19B). […] However, since HSP70/HSC70 act as critical co-chaperones for HSP90, for example in client protein recruitment, PES-mediated alteration in the function of the 70-kDa molecular chaperones could be reflected in an altered behavior or expression of many client proteins. To test this idea, we examined the expression of a few well-established HSP90 client proteins, including the transmembrane tyrosine kinase receptors EGFR and HER2/ERBB2, and the downstream signaling factor AKT. These proteins are overexpressed, or aberrantly expressed, in a variety of human tumors, and have been implicated in cancer etiology and pathology. As a control for these studies, we compared the effects of PES to that of the well-established HSP90 inhibitor, 17-allylamino-17-demethoxygeldanamycin (17-AAG). 17-AAG interacts with the N-terminal region of HSP90 and inhibits its ATPase activity; this disrupts interactions of HSP90 with client proteins and leads to client-protein degradation via the ubiquitin-proteasome pathway (Whitesell, et al. 2005; Neckers, et al. 2007). To examine the expression of some HSP70/HSP90 clients, we used western blot analysis of detergent-soluble (clarified) whole cell extracts.

Test [5] relates to FaDu tumor xenografts. Briefly: FaDu xenograft, western blot of tumor lysates for p62/SQSTM1 and LC3. It is filed as in vivo, nude mice. As to conditions: 40 mg/kg intratumoral.

SMILES strings stand for the structures. Bounds are passed on as bounds.

As for `NS(=O)(=O)C#Cc1ccccc1` [PES, 2-Phenylethynesulfonamide], the “cleavage of caspase-3, caspase-8 or PARP” value in test [1] (PES 20 μM alone) is “not accompanied by cleavage of caspase-3, caspase-8, or PARP”. Moreover, the “caspase-cleavage products after cisplatin” value in test [1] (co-treatment with cisplatin) was “effectively inhibited the appearance of these caspase-cleavage products”. For the same compound, the tumor development result in test [2] (40 mg/kg i.p. once every five days for 30 days) is recorded as “markedly impaired tumor development”. In addition, in test [2] (40 mg/kg intra-peritoneally every 5 days for 30 days), the “overall mean survival time” value was > 140 days. Besides, in test [3], the “basal degradation of long-lived proteins” value is recorded as “significantly reduced”. Besides, the “EGFR, HER2/ErbB2 and AKT in the detergent-insoluble fraction” value in test [4] (20 μM, 24 h) was “increased abundance of EGFR, HER2/ErbB2, and AKT in the detergent-insoluble fraction”. Moreover, the “expression of integrin β1 and CHIP” value in test [4] (H1299 cells, 20 μM, 24 h) is on record as “lower expression levels”. For the same compound, the “overall cellular abundance of EGFR, HER2/ErbB2 and AKT” value in test [4] (SKBR3 cells, detergent-soluble extracts, 24 h) is listed as “reduction in the overall cellular abundance”. Also, the “other cellular proteins in the detergent-insoluble fraction” value in test [4] (SKBR3 or SKOV3 cells) was “many of the proteins examined accumulate in the detergent-insoluble fraction”. The “LC3 in detergent-insoluble tumor fractions” value in test [5] is reported as “accumulated LC3 in the detergent-insoluble fractions”. The “p62/SQSTM1 abundance and oligomerization in tumor” value in test [5] (24 and 48 hr) is “increased p62/SQSMT1 abundance and oligomerization”.
